The results in this text go back to BindingDB's records for doi:10.1021/jm00101a009 (University of Minnesota, 1992).

SMILES strings stand for the structures. pKi: −log10 of the molar value.

The nature of the assay: The compound was evaluated for binding affinity against Opioid receptor delta 1 in guinea pig brain membrane using [3H]- DPDPE as ligand.
`Oc1ccc2c3c1O[C@H]1c4[nH]c5ccccc5c4C[C@H]4C(C2)NCC[C@]314` showed a pKi of 6.03. `Oc1ccc2c3c1O[C@H]1c4[nH]c5ccccc5c4C[C@@]4(O)C(C2)NCC[C@]314` had a pKi of 7.96. Then `Oc1ccc2c3c1O[C@H]1c4[nH]c5ccccc5c4C[C@H]4C(C2)N(CCc2ccccc2)CC[C@]314` [22-phenethyl-14-oxa-11,22-diazaheptacyclo[13.9.1.01,13.02,21.04,12.05,10.019,25]pentacosa-4(12),5(10),6,8,15(25),16,18-heptaen-16-ol], with 7.66; and `Oc1ccc2c3c1O[C@H]1c4[nH]c5ccccc5c4C[C@@]4(O)C(C2)N(CCc2ccccc2)CC[C@]314` [22-phenethyl-14-oxa-11,22-diazaheptacyclo[13.9.1.01,13.02,21.04,12.05,10.019,25]pentacosa-4(12),5(10),6,8,15(25),16,18-heptaene-2,16-diol], with 7.96.

By pKi is commonly meant the negative decadic logarithm of the Ki, by convention in mol/L. A higher pKi goes with a small Ki.
